MIC data for eight compounds are collected here from DBAASP.

Structures are written as SMILES. Converted amounts (≈) assume the structure as drawn. “And” between values parts separate entries of the source, which are not always exact repeats. Identical values can stand only once.

Some test systems named below: Staphylococcus aureus; Bacillus megaterium; Cupriavidus necator H16; Escherichia coli JM109; Escherichia coli K-12; Escherichia coli MH1.
Holding throughout (assay): ≥ marks a high value that may be exact or a test limit, other limits are often not marked, values filed in µg/mL are converted to µM
The test system of experiment [1] is Staphylococcus epidermidis ATCC 35984.
Experiment [2] relates to Pseudomonas aeruginosa ATCC 27853.
Experiment [3] has as its system Staphylococcus aureus ATCC 25923.
Experiment [4] relates to Staphylococcus aureus ATCC 33591.
Experiment [5] has as its system Staphylococcus aureus ATCC 43300.
Experiment [6] concerns Escherichia coli ATCC 25922.
Experiment [7] deals with Klebsiella pneumoniae ATCC 13883.
Experiment [8] has as its system Salmonella enterica subsp. enterica serovar Enteritidis ATCC 13076.
The subject of experiment [9] is Staphylococcus aureus ATCC BAA-39.
Experiment [10] relates to Listeria monocytogenes ATCC 19115.
For experiment [11], the system named is Staphylococcus aureus USA 300.
In experiment [12] the test system is Bacillus subtilis ATCC 23857.
Experiment [13] relates to Escherichia coli BL21(DE3).
The test system of experiment [14] is Pseudomonas putida GPp104.
Experiment [15] deals with Acinetobacter sp. DSM 586.
Experiment [16] relates to Escherichia coli DSM 1116.
Experiment [17] concerns Arthrobacter globiformis VKM Ac-1112.
In experiment [18] the test system is Escherichia coli DH5alpha.
Experiment [19] relates to Saccharomyces cerevisiae Y190.
Experiment [20] relates to Bacillus subtilis subsp. spizizenii DSM 347.
For experiment [21], the system named is Staphylococcus xylosus DSM 20267.
In experiment [22] the test system is Bacillus subtilis VKM B-501.
Experiment [23] has as its system Pseudomonas aeruginosa PAO1.
In experiment [24] the test system is Erwinia amylovora PMV 6076.
Experiment [25] deals with Xanthomonas campestris pv. Vesicatoria 2133-2.
Experiment [26] concerns Pseudomonas syringae pv. actinidiae Psa3700.1.1.
For experiment [27], the system named is Xanthomonas arboricola pv. pruni CFBP 5563.
In experiment [28] the test system is Pseudomonas syringae pv. syringae EPS 94.
Experiment [29] deals with Xanthomonas fragariae Xf349-9A.

As to `CC[C@H](C)[C@H](NC(=O)[C@H](Cc1cnc[nH]1)NC(=O)[C@@H]1CCCN1C(=O)[C@@H](NC(=O)[C@H](CC(C)C)NC(=O)[C@H](CO)NC(=O)[C@H](CC(C)C)NC(=O)[C@@H](N)Cc1ccccc1)[C@@H](C)CC)C(=O)N[C@H](C(=O)N[C@@H](CO)C(=O)NCC(=O)N[C@H](C(=O)N[C@@H](C)C(=O)N[C@@H](C)C(=O)N[C@@H](CC(C)C)C(=O)N[C@@H](C)C(=O)N[C@@H](CCCCN)C(=O)N[C@@H](Cc1cnc[nH]1)C(=O)N[C@@H](CC(C)C)C(=O)NCC(=O)O)C(C)C)C(C)C` [FLSLIPHIVSGVAALAKHLG], the MIC (as a rule, the least concentration at which growth counts as inhibited) in the experiment on Staphylococcus aureus was determined as 12.5 µM (≈ 25.5 µg/mL); against Bacillus megaterium it was 3.1 µM (≈ 6.33 µg/mL).
As for `CC[C@H](C)[C@H](NC(=O)CN)C(=O)NCC(=O)N[C@@H](CCCCN)C(=O)N[C@@H](Cc1ccccc1)C(=O)N[C@@H](CC(C)C)C(=O)N[C@@H](CCCCN)C(=O)N[C@@H](CCCCN)C(=O)N[C@@H](C)C(=O)N[C@@H](CCCCN)C(=O)N[C@@H](CCCCN)C(=O)N[C@@H](Cc1ccccc1)C(N)=O` [GIGKFLKKAKKF], the MIC in experiment [1] was no less than 33.2 µM; in experiment [2] it was 4.15 µM (≈ 5.65 µg/mL); in experiment [3] it was 375 µM (≈ 512 µg/mL); in experiment [4], no less than 375 µM.
On to `CC[C@H](C)[C@H](NC(=O)[C@H](CCCCN)NC(=O)[C@H](CCCN=C(N)N)NC(=O)[C@H](CC(C)C)NC(=O)[C@H](Cc1ccccc1)NC(=O)[C@H](CCCN=C(N)N)NC(=O)CNC(=O)[C@H](Cc1ccccc1)NC(=O)[C@H](CCCN=C(N)N)NC(=O)CNC(=O)[C@H](CCCN=C(N)N)NC(=O)[C@H](CCC(N)=O)NC(=O)[C@@H](NC(=O)[C@@H](N)CC(C)C)C(C)C)C(=O)N[C@@H](CCCN=C(N)N)C(=O)O` [LVQRGRFGRFLRKIR], for which the MIC in [5] is 5.66 µM and 16 µM; in experiment [6], 16 µM (≈ 30.4 µg/mL); in experiment [3] it was 8 µM and 16 µM; in [7], 8 µM and 16 µM; in experiment [8], 4 µM and 5.66 µM; in experiment [9], 5.66 µM and 16 µM. The MIC in [10] is 5.66 µM and 11.3 µM.
Take `CC[C@H](C)[C@H](NC(=O)[C@H](C)NC(=O)[C@@H](N)CCSC)C(=O)N[C@H](C(=O)NCC(=O)N[C@H](C(=O)N[C@H](C(=O)N[C@H](C(=O)N[C@@H](CCCCN)C(=O)N[C@H](C(=O)N[C@H](C(=O)N[C@@H](CCCCN)C(=O)N[C@@H](C)C(=O)N[C@H](C(=O)N[C@H](C(=O)N[C@@H](CC(=O)O)C(=O)N[C@H](C(=O)N[C@@H](Cc1ccccc1)C(=O)N[C@@H](C)C(=O)N[C@@H](CCCCN)C(=O)O)[C@@H](C)CC)[C@@H](C)CC)[C@@H](C)CC)[C@@H](C)CC)[C@@H](C)CC)[C@@H](C)CC)[C@@H](C)CC)[C@@H](C)O)C(C)C` [MAIVGTIIKIIKAIIDIFAK]: the MIC was no less than 64 µM in [1], no less than 64 µM in experiment [11], greater than 128 µM in experiment [6] and no less than 128 µM in experiment [12].
Take `CC[C@H](C)[C@H](NC(=O)[C@H](Cc1ccc(O)cc1)NC(=O)[C@@H](NC(=O)[C@@H]1CCCN1C(=O)[C@H](CCCN=C(N)N)NC(=O)[C@@H](NC(=O)CNC(=O)[C@@H](N)CCCN=C(N)N)C(C)C)C(C)C)C(=O)N1CCC[C@H]1C(=O)N[C@@H](CCC(N)=O)C(=O)N1CCC[C@H]1C(=O)N[C@@H](CCCN=C(N)N)C(=O)N1CCC[C@H]1C(=O)N1CCC[C@H]1C(=O)N[C@@H](Cc1cnc[nH]1)C(=O)N1CCC[C@H]1C(=O)N[C@@H](CCCN=C(N)N)C(=O)N[C@@H](CC(C)C)C(=O)O` [RGVRPVYIPQPRPPHPRL]: the MIC against Cupriavidus necator H16 came out at 25 µM (≈ 53.4 µg/mL); against Escherichia coli JM109 it was 6.25 µM (≈ 13.3 µg/mL); in [13], 0.313 µM (≈ 0.668 µg/mL); in experiment [14], 6.25 µM (≈ 13.3 µg/mL).
For `CC[C@H](C)[C@H](NC(=O)[C@@H](NC(=O)[C@@H](NC(=O)[C@@H](NC(=O)[C@@H](NC(=O)[C@H](CCCCN)NC(=O)[C@@H]1CCCN1C(=O)[C@H](CCCN=C(N)N)NC(=O)[C@H](Cc1ccccc1)NC(=O)[C@H](CCCN=C(N)N)NC(=O)[C@@H](N)CCCN=C(N)N)C(C)C)[C@@H](C)O)[C@@H](C)CC)[C@@H](C)O)C(=O)N[C@@H](CCC(N)=O)C(=O)NCC(=O)N[C@@H](CO)C(=O)N[C@@H](C)C(=O)N[C@@H](CCCN=C(N)N)C(=O)N[C@@H](Cc1ccccc1)C(=O)O` [RRFRPKVTITIQGSARF], the minimal inhibitory concentration (MIC) is 2 µM and 4 µM in experiment [5]; 5.66 µM and 8 µM in experiment [6]; 2.83 µM and 4 µM in experiment [3]; 4 µM (≈ 8.13 µg/mL) in [7]; 4 µM (≈ 8.13 µg/mL) in experiment [8]; 4 µM (≈ 8.13 µg/mL) in experiment [9]. In experiment [10], the MIC was 2.83 µM and 4 µM.
With `CSCC[C@H](NC(=O)[C@H](CO)NC(=O)[C@H](CCCCN)NC(=O)[C@H](Cc1c[nH]c2ccccc12)NC(=O)[C@@H](N)CO)C(=O)N[C@@H](C)C(=O)N[C@@H](CCCCN)C(=O)N[C@@H](CCCCN)C(=O)N[C@@H](CC(C)C)C(=O)N[C@@H](CCCCN)C(=O)N[C@@H](CCC(=O)O)C(=O)N[C@@H](Cc1ccc(O)cc1)C(=O)N[C@@H](CCSC)C(=O)N[C@@H](CCC(=O)O)C(=O)N[C@@H](CCCCN)C(=O)N[C@@H](CC(C)C)C(=O)N[C@@H](CCCCN)C(=O)N[C@@H](CCC(N)=O)C(=O)N[C@@H](CCCNC(=N)N)C(=O)N[C@@H](C)C(=O)O` [SWKSMAKKLKEYMEKLKQRA], the MIC in experiment [15] was 3.22 µM (≈ 8 µg/mL); in experiment [16], 3.22 µM (≈ 8 µg/mL); in experiment [11], no less than 100 µM; in experiment [6], 40.3 µM (≈ 100 µg/mL); in the experiment on Escherichia coli K-12, no less than 100 µM; in experiment [3], 33.8 µM (≈ 84 µg/mL). The MIC in [17] was determined as 0.3 µM (≈ 0.745 µg/mL); in experiment [18], 2.5 µM (≈ 6.21 µg/mL); in experiment [19], 20 µM (≈ 49.7 µg/mL); in [20], 6.44 µM (≈ 16 µg/mL); in experiment [21], 3.22 µM (≈ 8 µg/mL); against Escherichia coli MH1, 6 µM (≈ 14.9 µg/mL). In addition, the MIC in experiment [22] is 1.2 µM (≈ 2.98 µg/mL); in [23] it was greater than 40 µM.
With `CC(C)C[C@H](NC(=O)[C@H](CCCN=C(N)N)NC(=O)[C@H](CC(N)=O)NC(=O)[C@H](CCCCN)NC(=O)[C@H](CCC(=O)O)NC(=O)[C@H](CCC(=O)O)NC(=O)[C@H](CCC(=O)O)NC(=O)[C@@H](NC(=O)[C@H](CC(C)C)NC(=O)[C@H](CCCCN)NC(=O)[C@@H](NC(=O)[C@H](CCCCN)NC(=O)[C@H](CCCCN)NC(=O)[C@@H](N)[C@@H](C)O)[C@@H](C)O)[C@@H](C)O)C(N)=O` [TKKTKLTEEEKNRL], the MIC in [24], in experiment [25], in [26], in experiment [27], in experiment [28] and in experiment [29] was no less than 50 µM each time.
